Results on one compound are retold here after PMC10394516, “The pharmacokinetic profile of brensocatib and its effect on pharmacodynamic biomarkers including NE, PR3, and CatG in various rodent species” (Frontiers in Pharmacology, 2023).

Data set [1] in a line: Plasma PK of brensocatib, BID vs QD oral dosing, BALB/c mice. Particulars: for half-life / AUC(0-t): both sexes, BALB/c, mouse, po. The format is in vivo. The protocol:
A dose frequency study was performed in male and female mice (C57BL/6 & BALB/c) and in male and female rats (Sprague Dawley & Wistar) investigating twice daily (BID) versus once daily (QD) brensocatib administration.
Briefly, animals were weighed and randomized into different treatment groups. In total, three different dosing levels of brensocatib were tested in each species and strain; each QD dosing level was equivalent to 1.5-times the matching daily BID dose. For BID dosing, the second daily dose was administered 8-h post the morning dose. C57BL/6 mice were dosed either BID or QD for 7 consecutive days at 0/0, 0.5/0.75, 2/3, and 20/30 mg/kg/day (BID/QD). BALB/c mice were dosed for 7 consecutive days at 0/0, 0.2/0.3, 2/3, and 20/30 mg/kg/day (BID/QD). SD rats were dosed for 9 consecutive days at 0/0, 0.2/0.3, 2/3, and 20/30 mg/kg/day (BID/QD). Wistar rats were dosed for 7 consecutive days at 0/0, 0.2/0.3, 2/3, and 20/30 mg/kg/day (BID/QD).
For sparse PK analysis via LC-MS/MS, plasma was collected from animals during the first 24 h of dosing at prescribed timepoints. The timepoints included 1, 3, 8, and 24 h post initial dose for QD groups, and 1, 3, 8, 9, 11, and 24 h post initial dose for BID groups. Note that the 8- and 24-h plasma samples were prior to the afternoon dose for BID groups and prior to the second day dose for all groups, respectively. See section Quantification of Plasma Brensocatib Concentrations for details.
Blood was collected via the tail-vein technique and centrifuged to separate and collect the plasma. The resulting plasma samples were stored at −20°C or lower until LC-MS/MS analysis.
The plasma concentration of brensocatib was quantified by liquid chromatography, tandem mass spectrometry (LC-MS/MS), a Sciex API6500 mass spectrometer (SCIEX, Framingham, MA). Two brensocatib stock solutions were prepared, one for the preparation of the 8-point standard (STD) curve spiking solutions and the other for the preparation of the quantitative control spiking solutions (QCs) at three levels. The STD curve and QCs were prepared by 2% spiking from the spiking solutions into mouse or rat plasma. The samples were extracted using a protein precipitation method, where 10 µL of sample was mixed with 100 µL of internal standard working solution (100 ng/mL ^6C13-brensocatib in methanol), vortexed for 5 s, and centrifuged at 21,130 × g at 4°C for 15 min. The supernatant was mixed with an equal volume of water and 10 μL was injected into a Phenomenex Kinetex Biphenyl column (3.0 mm × 50 mm; 2.6 μm; 65°C; 0.8 mL/min) with an elution gradient consisting of mobile phase A (10 mM ammonium formate) and mobile phase B (methanol) over 2 min from 5% to 95% B. The mass spectrometer was equipped with an atmospheric-pressure chemical ionization source operating in positive mode.
Individual plasma concentrations were plotted and the area under the curve (AUC) was calculated using the trapezoid method. The elimination rate constant (k e ) was calculated as the negative natural log of the plasma concentration over time (Eq. 1) starting at the max concentration (C max) after the most recent dose to the last measurable plasma concentration between doses. The calculated k e was used to define the half-life (t 1/2 ) based on Eq. 2; where 0.693 is the natural log of 2 and assumes a first-order reaction. ke=−ln∆C/∆t (1) t1/2=0.693/ke (2)

On the set-up of data set [2]: method as in Chalmers et al., 2020. Conditions: Phase 2 trial in NCFBE (WILLOW, NCT03218917), compared to placebo; ref Chalmers et al., 2020; cited from earlier work.

Molecules are shown by their SMILES. Read-outs that look alike come from different tables or passages of the source.

Turning to `Cn1c(=O)oc2ccc(-c3ccc(C[C@@H](C#N)NC(=O)[C@@H]4CNCCCO4)cc3)cc21` [brensocatib], the half-life was 40.2 ± 2.4 min in data set [1] (0.2 mg/kg/day, oral BID, 0.2 mg/kg/day, evening dose, read-out: t1/2, PM dose (converted)); 94.8 ± 43.2 min in data set [1] (0.2 mg/kg/day, oral BID, 0.2 mg/kg/day, morning dose, read-out: t1/2, AM dose (converted)); 58.2 ± 1.8 min in data set [1] (0.3 mg/kg/day, oral QD, 0.3 mg/kg/day, read-out: t1/2, AM dose (converted)); 71.4 ± 20.4 min in data set [1] (2 mg/kg/day, oral BID, 2 mg/kg/day, evening dose, read-out: t1/2, PM dose (converted)); 193 ± 21 min in data set [1] (2 mg/kg/day, oral BID, 2 mg/kg/day, morning dose, read-out: t1/2, AM dose (converted)); 49.8 ± 1.8 min in data set [1] (3 mg/kg/day, oral QD, 3 mg/kg/day, read-out: t1/2, AM dose (converted)). The half-life in data set [1] (20 mg/kg/day, oral BID, 20 mg/kg/day, evening dose, read-out: t1/2, PM dose (converted)) is 113 ± 3.6 min; in data set [1] (20 mg/kg/day, oral BID, 20 mg/kg/day, morning dose, read-out: t1/2, AM dose (converted)), 148 ± 18.6 min; in data set [1] (30 mg/kg/day, oral QD, 30 mg/kg/day, read-out: t1/2, AM dose (converted)), 154 ± 8.4 min. The AUC(0-t) in data set [1] (0.2 mg/kg/day, oral BID, 0.2 mg/kg/day, first 24 h, read-out: AUC0–24h) is 124 ± 31 ng·h/mL; in data set [1] (0.2 mg/kg/day, oral BID, 0.2 mg/kg/day, first 24 h, read-out: AUC(0–24)) it was 0.29 ± 0.07 µM·h; in data set [1] (0.3 mg/kg/day, oral QD, 0.3 mg/kg/day, first 24 h, read-out: AUC0–24h), 188 ± 31 ng·h/mL; in data set [1] (0.3 mg/kg/day, oral QD, 0.3 mg/kg/day, first 24 h, read-out: AUC(0–24)) it was 0.45 ± 0.07 µM·h; in data set [1] (2 mg/kg/day, oral BID, 2 mg/kg/day, first 24 h, read-out: AUC0–24h) it was 1510 ± 395 ng·h/mL; in data set [1] (2 mg/kg/day, oral BID, 2 mg/kg/day, first 24 h, read-out: AUC(0–24)) it was 3.59 ± 0.94 µM·h. Also, the AUC(0-t) in data set [1] (3 mg/kg/day, oral QD, 3 mg/kg/day, first 24 h, read-out: AUC0–24h) was 2960 ± 679 ng·h/mL; in data set [1] (3 mg/kg/day, oral QD, 3 mg/kg/day, first 24 h, read-out: AUC(0–24)), 7.04 µM·h; in data set [1] (20 mg/kg/day, oral BID, 20 mg/kg/day, first 24 h, read-out: AUC0–24h) it was 24100 ng·h/mL; in data set [1] (20 mg/kg/day, oral BID, 20 mg/kg/day, first 24 h, read-out: AUC(0–24)), 57.3 ± 11.4 µM·h; in data set [1] (30 mg/kg/day, oral QD, 30 mg/kg/day, first 24 h, read-out: AUC0–24h) it was 56300 ng·h/mL; in data set [1] (30 mg/kg/day, oral QD, 30 mg/kg/day, first 24 h, read-out: AUC(0–24)) it was 134 ± 41.1 µM·h. In addition, the “AUC(0–24)” value in data set [1] (oral QD, 3 mg/kg/day, first 24 h) came out at 7.05 ± 1.61 µmol·h/L. Besides, in data set [2], the “time to first exacerbation” value is “prolonged”.
